PubChem BioAssay (NCI)
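Here, GI50 denotes the concentration required for 50% inhibition of growth. TGI denotes the concentration required for complete inhibition of growth.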

Assays:
Assay in all cases: NCI tumour cell line growth inhibition, 384-well format
786-0 renal = test system: 786-0 renal
A498 renal = test system: A498 renal
A549 NSCLC = test system: A549 NSCLC
ACHN renal = test system: ACHN renal
BT-549 breast = test system: BT-549 breast
CAKI-1 renal = test system: CAKI-1 renal
CCRF-CEM leukemia = test system: CCRF-CEM leukemia
COLO 205 colon = test system: COLO 205 colon
DU-145 prostate = test system: DU-145 prostate
HCC-2998 colon = test system: HCC-2998 colon
HCT-15 colon = test system: HCT-15 colon
HL-60(TB) leukemia = test system: HL-60(TB) leukemia
HOP-62 NSCLC = test system: HOP-62 NSCLC
HT29 colon = test system: HT29 colon
IGROV1 ovarian = test system: IGROV1 ovarian
K-562 leukemia = test system: K-562 leukemia
KM12 colon = test system: KM12 colon
LOX IMVI melanoma = test system: LOX IMVI melanoma
M14 melanoma = test system: M14 melanoma
MALME-3M melanoma = test system: MALME-3M melanoma
MCF7 breast = test system: MCF7 breast
MDA-MB-231 breast = test system: MDA-MB-231 breast
MDA-MB-435 melanoma = test system: MDA-MB-435 melanoma
MDA-MB-468 breast = test system: MDA-MB-468 breast
MOLT-4 leukemia = test system: MOLT-4 leukemia
NCI-H226 lung = test system: NCI-H226 lung
NCI-H23 lung = test system: NCI-H23 lung
NCI-H322M lung = test system: NCI-H322M lung
NCI-H460 NSCLC = test system: NCI-H460 NSCLC
NCI-H522 lung = test system: NCI-H522 lung
NCI/ADR-RES ovarian = test system: NCI/ADR-RES ovarian
OVCAR-3 ovarian = test system: OVCAR-3 ovarian
OVCAR-4 ovarian = test system: OVCAR-4 ovarian
OVCAR-5 ovarian = test system: OVCAR-5 ovarian
OVCAR-8 ovarian = test system: OVCAR-8 ovarian
PC-3 prostate = test system: PC-3 prostate
RPMI-8226 leukemia = test system: RPMI-8226 leukemia
RXF 393 renal = test system: RXF 393 renal
SF-268 CNS = test system: SF-268 CNS
SF-295 CNS = test system: SF-295 CNS
SF-539 CNS = test system: SF-539 CNS
SK-MEL-2 melanoma = test system: SK-MEL-2 melanoma
SK-MEL-28 melanoma = test system: SK-MEL-28 melanoma
SK-MEL-5 melanoma = test system: SK-MEL-5 melanoma
SK-OV-3 ovarian = test system: SK-OV-3 ovarian
SN12C renal = test system: SN12C renal
SNB-19 CNS = test system: SNB-19 CNS
SR leukemia = test system: SR leukemia
SW-620 colon = test system: SW-620 colon
T-47D breast = test system: T-47D breast
TK-10 renal = test system: TK-10 renal
U251 glioblastoma = test system: U251 glioblastoma
UACC-257 melanoma = test system: UACC-257 melanoma
UACC-62 melanoma = test system: UACC-62 melanoma
UO-31 renal = test system: UO-31 renal

CN(C)C/C=C/C(=O)Nc1ccc(C(=O)Nc2cccc(Nc3ncc(Cl)c(-c4c[nH]c5ccccc45)n3)c2)cc1
GI50 ([…]-0 renal): 23.9 nM | TGI (786-0 renal): 83.3 nM | GI50 (A498 renal): 17.2 nM | TGI (A498 renal): 55.9 nM | GI50 (A549 NSCLC): 31.1 nM | TGI (A549 NSCLC): 110 nM | GI50 (ACHN renal): 20.5 nM | TGI (ACHN renal): 83 nM | GI50 (BT-549 breast): < 10 nM | TGI (BT-549 breast): 13.7 nM | GI50 (CAKI-1 renal): 14.2 nM | TGI (CAKI-1 renal): 46.9 nM | GI50 (CCRF-CEM leukemia): < 10 nM | TGI (CCRF-CEM leukemia): < 10 nM | GI50 (COLO 205 colon): < 10 nM | TGI (COLO 205 colon): 13.4 nM | GI50 (DU-145 prostate): 16.2 nM | TGI (DU-145 prostate): 60.2 nM | GI50 (HCC-2998 colon): < 10 nM | TGI (HCC-2998 colon): 20.6 nM | GI50 (HCT-15 colon): 45.1 nM | TGI (HCT-15 colon): 213 nM | GI50 (HL-60(TB) leukemia): < 10 nM | TGI (HL-60(TB) leukemia): < 10 nM | GI50 (HOP-62 NSCLC): 15.8 nM | TGI (HOP-62 NSCLC): 47.9 nM | GI50 (HT29 colon): 20 nM | TGI (HT29 colon): 47.5 nM | GI50 (IGROV1 ovarian): 12.5 nM | TGI (IGROV1 ovarian): 51.9 nM | GI50 (K-562 leukemia): < 10 nM | TGI (K-562 leukemia): 103 nM | GI50 (KM12 colon): 17.7 nM | TGI (KM12 colon): 41.1 nM | GI50 (LOX IMVI melanoma): < 10 nM | TGI (LOX IMVI melanoma): 28.2 nM | GI50 (M14 melanoma): 14.5 nM | TGI (M14 melanoma): 29.5 nM | GI50 (MALME-3M melanoma): 14.7 nM | TGI (MALME-3M melanoma): 29.9 nM | GI50 (MCF7 breast): < 10 nM | TGI (MCF7 breast): 166 nM | GI50 (MDA-MB-231 breast): < 10 nM | TGI (MDA-MB-231 breast): 44.8 nM | GI50 (MDA-MB-435 melanoma): 13.3 nM | TGI (MDA-MB-435 melanoma): 35.4 nM | GI50 (MDA-MB-468 breast): < 10 nM | TGI (MDA-MB-468 breast): 14.4 nM | GI50 (MOLT-4 leukemia): < 10 nM | TGI (MOLT-4 leukemia): 12.4 nM | GI50 (NCI-H226 lung): 12.4 nM | TGI (NCI-H226 lung): 33.6 nM | GI50 (NCI-H23 lung): 10.6 nM | TGI (NCI-H23 lung): 25.4 nM | GI50 (NCI-H322M lung): 20.9 nM | TGI (NCI-H322M lung): 49.5 nM | GI50 (NCI-H460 NSCLC): 17.3 nM | TGI (NCI-H460 NSCLC): 37.2 nM | GI50 (NCI-H522 lung): < 10 nM | TGI (NCI-H522 lung): < 10 nM | GI50 (NCI/ADR-RES ovarian): 525 nM | TGI (NCI/ADR-RES ovarian): 12200 nM | GI50 (OVCAR-3 ovarian): < 10 nM | TGI (OVCAR-3 ovarian): 11 nM | GI50 (OVCAR-4 ovarian): < 10 nM | TGI (OVCAR-4 ovarian): 25.4 nM | GI50 (OVCAR-5 ovarian): 21.4 nM | TGI (OVCAR-5 ovarian): 1200 nM | GI50 (OVCAR-8 ovarian): 16.5 nM | TGI (OVCAR-8 ovarian): 39.8 nM | GI50 (PC-3 prostate): 20.6 nM | TGI (PC-3 prostate): 54.5 nM | GI50 (RPMI-8226 leukemia): 13.7 nM | TGI (RPMI-8226 leukemia): 26.8 nM | GI50 (RXF 393 renal): < 10 nM | TGI (RXF 393 renal): < 10 nM | GI50 (SF-268 CNS): < 10 nM | TGI (SF-268 CNS): 17.4 nM | GI50 (SF-295 CNS): 31.4 nM | TGI (SF-295 CNS): 99.4 nM | GI50 (SF-539 CNS): < 10 nM | TGI (SF-539 CNS): 19.5 nM | GI50 (SK-MEL-2 melanoma): < 10 nM | TGI (SK-MEL-2 melanoma): 13.3 nM | GI50 (SK-MEL-28 melanoma): < 10 nM | TGI (SK-MEL-28 melanoma): 15.2 nM | GI50 (SK-MEL-5 melanoma): < 10 nM | TGI (SK-MEL-5 melanoma): 20.7 nM | GI50 (SK-OV-3 ovarian): 11.4 nM | TGI (SK-OV-3 ovarian): 45.9 nM | GI50 (SN12C renal): 10.3 nM | TGI (SN12C renal): 29.4 nM | GI50 (SNB-19 CNS): 20.1 nM | TGI (SNB-19 CNS): 174 nM | GI50 (SR leukemia): < 10 nM | TGI (SR leukemia): < 10 nM | GI50 (SW-620 colon): < 10 nM | TGI (SW-620 colon): 42 nM | GI50 (T-47D breast): 14.2 nM | TGI (T-47D breast): 73.3 nM | GI50 (TK-10 renal): 21.8 nM | TGI (TK-10 renal): 55.9 nM | GI50 (U251 glioblastoma): < 10 nM | TGI (U251 glioblastoma): 27.4 nM | GI50 (UACC-257 melanoma): < 10 nM | TGI (UACC-257 melanoma): 21.3 nM | GI50 (UACC-62 melanoma): < 10 nM | TGI (UACC-62 melanoma): 18.7 nM | GI50 (UO-31 renal): 105 nM | TGI (UO-31 renal): 372 nM
